This note sets out measurements from paper PMC5983452 (PLoS ONE, 2018).

Each structure is given as a SMILES string. “Also recorded” adds a separate entry of the source. Structures can show the parent of a compound that is named as a salt.

The Kd is the concentration at which binding is half-saturated. Broadly, the fraction unbound is the share of the substance not bound to proteins or other matrix. Higher therefore signals much free substance. For orientation: microsomal CLint means the capacity of the preparation to metabolise the compound, expressed as a volume cleared per time. Higher therefore signals rapid turnover. The term MRT denotes a mean duration of stay, worked out from the concentration-time curve. For orientation: bioavailability means the share of a dose that reaches the circulation, judged against a reference dose that is usually intravenous. One may read the half-life as the time in which the quantity being followed falls by half. As usually defined, the Tmax is the time from dosing to the highest level.

Series [1] addresses T1, SMYD3 (Homo sapiens, UniProt Q9H7B4).
T1 sequence (Q9H7B4 1-428): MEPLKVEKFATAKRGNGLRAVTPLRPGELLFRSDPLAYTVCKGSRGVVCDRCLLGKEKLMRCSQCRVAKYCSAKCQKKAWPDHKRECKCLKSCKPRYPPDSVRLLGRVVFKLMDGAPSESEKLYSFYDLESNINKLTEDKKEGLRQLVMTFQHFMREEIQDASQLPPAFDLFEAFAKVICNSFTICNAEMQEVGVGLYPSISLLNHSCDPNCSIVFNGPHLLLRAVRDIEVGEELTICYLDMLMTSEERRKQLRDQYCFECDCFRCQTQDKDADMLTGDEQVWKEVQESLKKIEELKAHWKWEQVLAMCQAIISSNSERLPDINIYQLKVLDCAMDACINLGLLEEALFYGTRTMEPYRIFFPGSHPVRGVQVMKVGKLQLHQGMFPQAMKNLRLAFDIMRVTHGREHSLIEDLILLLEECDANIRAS
The series is described as follows: SMYD3 biochemical methylation assay (3H-SAM, GST-MAP3K2/MEKK2 substrate). More on the design: Protein purification of both isoforms of full length SMYD3 was performed as previously reported; made in house. Particulars: tested in duplicate; read-out: selectivity panel result, SMYD3 (off-target). How it is done: SMYD3 assays were performed as previously described using N-terminally GST-tagged MAP3K2 protein substrate. […] Reactions were conducted at room temperature with enzyme and inhibitor incubated for 30 minutes before initiating the reaction with substrates. Dose-response curves were tested in duplicate in each experiment. […] Quenched reactions were transferred to a streptavidin-coated flashplate (Perkin Elmer) for capture of the biotinylated peptide. After 2 h incubation at room temperature, the flashplate was washed once with 0.1% Tween-20 and read on a Perkin Elmer Topcount NXT plate reader. Substrate apparent KM values were determined by measuring the initial velocities (v0) in duplicate while varying one substrate at fixed concentration of the second substrate.
Mechanism of inhibition was determined by measuring the inhibitor IC50 values while varying the concentration of one substrate at a fixed concentration of the second substrate equal to its KM value.

Series [2] addresses T2, SMYD2 (Homo sapiens, UniProt Q9NRG4). The series is described as follows: Intracellular BTF3 monomethylation (BTF3me1) western blot. Further details: endogenous in cells; host or cells: 313 cancer cell lines. Particulars: read-out: Intracellular Methylation IC50. The format is cell-based. How it is done: Cells were lysed in 1X RIPA Buffer containing 10% SDS and Halt™ Protease Inhibitor Cocktail (Thermo Fisher Scientific) and incubated on ice for 30 minutes before sonication (Amplitude 20%/10sec) twice. Lysates were spun at […] at 4°C for 10min and normalized for protein concentration by BCA assay (Thermo Fisher Scientific). […] Blots were imaged using the Odyssey Imaging System (LICOR Biosciences). […] BTF3me1 is a custom generated polyclonal antibody, affinity purified from serum of rabbits injected with adjuvant conjugated peptide corresponding to methylated K1 of BTF3 (K(Me)-[…]).
SMYD2 catalyzes the methylation of lysine residues on several proteins, including BTF3 [40].
For orientation: Immunoblotting shows a protein as a band on a membrane.

In series [3] the target is T2, SMYD2. The series is described as follows: SPR binding assay EPZ033294/SMYD2 (SensiQ). More on the design: Full length FLAG-SMYD2 and C-terminally Avi-tagged full length SMYD2 (SMYD2-Avi) were cloned into pFastbac vectors; FLAG (N); His tag with TEV cleavage site (N, cleaved yes); made in house; host or cells: Sf9 insect cells (baculovirus). Particulars: 15°C, 10 µM SAM in running buffer; read-out: dissociation constant (KD) by SPR. On the procedure: The running buffer contained 25 mM Tris-HCl pH 8.0, 150 mM NaCl, 5 mM DTT, 10 µM ZnCl2, 0.05% Tween-20, 10 µM SAM, and 2% DMSO. Avi-tagged biotinylated SMYD2 was immobilized on a neutravidin-coupled BioCap chip up to 6000 RU. Streptavidin on the reference cell was blocked with biocytin. […] Dissociation time was 1000 sec. Analysis of double-referenced data was performed using the 1:1 binding model in QDAT data analysis tool (SensiQ Technologies Inc.).
On the technique in general: In SPR one partner is held on a chip, and binding of the other changes the refractive index at the surface.

The nature of series [4]: Plasma protein binding (equilibrium dialysis), human. Particulars: pH 7.4, Human fu (unbound fraction).
Experimental: Caco-2 permeability. Caco-2 cells (obtained from the ATCC), between passage numbers 40 to 60, were seeded onto Millipore
Multiscreen plates at 1x10^5 cells/cm2 in Dulbecco's Modified Eagle Medium. Media was changed every two or three days. On
Day 20, the permeability study was performed using Hanks Balanced Salt Solution (HBSS) pH 7.4 buffer with 25 mM HEPES and
Incubations were carried out in an atmosphere of 5% CO2 with a relative humidity of
The monolayers were prepared by rinsing both basolateral and apical surfaces twice with HBSS at 37°C. Cells were
then incubated with HBSS in both apical and basolateral compartments for 40 min to stabilize physiological parameters. HBSS […]
removed and apical and basolateral samples diluted for analysis by LC-MS/MS. Permeability was assessed in duplicate, on two
different occasions. […] Compounds were quantified by LC-MS/MS analysis using a 5 point calibration curve. The starting concentration (C0) was determined from the dosing solution and
experimental recovery calculated from C0 and both apical and basolateral compartment concentrations. […]
(Papp) for each compound was calculated as: (dQ/dt)/(C0xA), where dQ/dt is the rate of permeation of the drug across the cells, C0 […]
Plasma protein binding. Plasma protein binding was assessed by equilibrium dialysis utilizing the HT-dialysis cell format with a […]
Series [5] concerns A549 cells. Put plainly: Trametinib growth inhibition in combination with EPZ028862. The format is cell-based. Particulars: 2, 5 and 7 days. The text has this: Plotted data is the average of three biological replicates. Error bars represent standard deviation. (PDF) Click here for additional data file.
Series [6] relates to lung cancer cell lines. Particulars: read-out: impact on proliferation of NSCLC and other lung cancer cell lines (none at concentrations as high as).
The nature of series [7]: in vitro. The format is in vitro ADME, cyno-monkeys. Particulars: male, monkey, microsomes, pH 7.4.
Series [8] is described as follows: Dog pharmacokinetic study. The format is in vivo, male beagle dogs. Particulars: male Beagle. On the procedure:
(§1) 2. […] Food was returned 4 hours after dosing. […] 4. […] Food was returned 4 hours after dosing. […] Supplemental Results:SMYD2 compound characterization […] The […] nM (Figure S8A).

Series [9] is described as follows: Rat pharmacokinetic study. Particulars: male Sprague Dawley. The format is in vivo, male Sprague Dawley rats. On the procedure: as §1
Series [10] in a line: in vitro. The format is in vitro ADME. Particulars: plasma. On the procedure:
After stirred for 30 min at 25 °C, NaBH3CN […]
mixture was concentrated under vacuum. […] The combined organic […]
The crude product was further
The fractions containing product were combined and concentrated. […]
cyclopropylisoxazole-3-carboxamide hydrochloride as a light yellow solid.
Media was changed every two or three days. On
95% at 37°C. […] Cells were
At 120 min the companion plate was
Permeability was assessed in duplicate, on two […]
different occasions. […] Compounds were quantified by LC-MS/MS analysis using a 5 point calibration curve.
The permeability coefficient
Solutions of test compounds (1 µM, 0.5% final
Incubations were performed in
Haloperidol was incubated in parallel as the control compound for each species.
(7 points) and protein containing solutions (6 points).
Liver microsome (LM) stability. […]
the reaction. The final incubation volume was 50 µL. Negative control incubations were included where phosphate buffer was […]
min. The negative controls were incubated for 45 min only. […]
µL methanol at the appropriate time points.
Subsequently, intrinsic CL (CLint) was […]

[11] abbreviates: plasma, IV 1 mg/kg, read-out: CLp.
Where [12] appears, read: plasma, IV 1 mg/kg, read-out: Vss.

T2 sequence (Q9NRG4 whole entry): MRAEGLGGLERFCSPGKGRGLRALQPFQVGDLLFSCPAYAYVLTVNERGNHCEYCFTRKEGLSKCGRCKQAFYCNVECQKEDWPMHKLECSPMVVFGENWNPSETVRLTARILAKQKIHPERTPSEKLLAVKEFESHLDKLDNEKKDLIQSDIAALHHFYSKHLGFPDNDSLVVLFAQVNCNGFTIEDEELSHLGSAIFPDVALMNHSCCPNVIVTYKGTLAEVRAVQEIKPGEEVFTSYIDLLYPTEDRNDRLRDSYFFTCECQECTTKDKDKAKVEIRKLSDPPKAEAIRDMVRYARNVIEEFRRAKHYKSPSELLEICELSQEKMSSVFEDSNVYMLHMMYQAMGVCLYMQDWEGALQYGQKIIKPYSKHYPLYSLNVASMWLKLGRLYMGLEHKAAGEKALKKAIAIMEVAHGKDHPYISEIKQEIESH

`O=C(NC1CN(Cc2cnn(Cc3ccc(Cl)cc3)c2)C1)c1cn(C2CC2)nn1` [EPZ033294]: the IC50 in series [1] is more than 10000 nM; in [2] it was 2.9 nM. Besides, the equilibrium dissociation constant (Kd) in series [3] is 5 nM. In addition, the fraction unbound at 16 h, 1 µM in series [4] was 0.13.
`NC1CCC(S(=O)(=O)N2C3CCC2CC(NC(=O)c2cc(C4CC4)on2)C3)CC1` [EPZ028862, N-((1R,3R,5S)-8-((1r,4R)-4-aminocyclohexylsulfonyl)-8-aza-bicyclo[3.2.1]octan-3-yl)-5-cyclopropylisoxazole-3-carboxamide hydrochloride]: the “effect of 1 μM EPZ028862 on growth inhibition by trametinib” value in [5] is on record as “unaffected; also recorded: no effect”. In addition, in series [6], the IC50 was more than 25000 nM. For the same compound, the microsomal CLint at 1 µM in [7] came out at 3.2 µL/min/mg. Further, the MRT in [8] (plasma, IV 1 mg/kg, PO 5 mg/kg) is 7 ± 0.2 h. Also, the bioavailability in series [8] (plasma, IV 1 mg/kg, PO 5 mg/kg) was 70 ± 6%; in series [9] (plasma, IV 1 mg/kg, PO 5 mg/kg) it was 59 ± 10%. In addition, the half-life in series [8] (plasma, IV 1 mg/kg, PO 5 mg/kg) is 5.4 ± 0.1 h; in series [9] (plasma, IV 1 mg/kg, PO 5 mg/kg), 2.1 ± 0.2 h. Moreover, the clearance in series [8] (setting [11]) was 13.9 ± 1.2 mL/min/kg; in [9] (setting [11]), 32.7 ± 4.4 mL/min/kg. The Vd came out at 5.8 ± 0.6 L/kg in [8] (setting [12]) and 4.4 ± 0.1 L/kg in [9] (setting [12]). Besides, the time of peak concentration (Tmax) in [8] (plasma, PO 5 mg/kg) turned out to be 1.5 ± 0.9 h; in series [9] (plasma, PO 5 mg/kg), 1 h. Further, the CL renal was 1.97 ± 0.38 mL/min/kg in series [8] (urine and plasma, IV 1 mg/kg); 21 ± 6 mL/min/kg in [9] (urine and plasma, IV 1 mg/kg). For the same compound, the fraction unbound at 16 h, 1 µM in [10] (dog, pH 7.4) came to 0.82; in series [10] (rat, pH 7.4, Rat fu (unbound fraction)), 0.64.
